According to paper PMC8011931, “Identification, Structure–Activity Relationship, and Biological Characterization of 2,3,4,5-Tetrahydro-1H-pyrido[4,3-b]indoles as a Novel Class of CFTR Potentiators” (Journal of Medicinal Chemistry, 2020):

How the values were obtained:
[1] = target: T1, CFTR (Homo sapiens, UniProt P13569); experiment: Short-circuit current recordings on primary HBE cells from non-CF individuals; assay type: cell-based
T1 construct: primary human bronchial epithelial (HBE) cells, from non-CF individuals; endogenous in cells; host or cells: primary human bronchial epithelial cells from non-CF individuals
T1 sequence (P13569 whole entry): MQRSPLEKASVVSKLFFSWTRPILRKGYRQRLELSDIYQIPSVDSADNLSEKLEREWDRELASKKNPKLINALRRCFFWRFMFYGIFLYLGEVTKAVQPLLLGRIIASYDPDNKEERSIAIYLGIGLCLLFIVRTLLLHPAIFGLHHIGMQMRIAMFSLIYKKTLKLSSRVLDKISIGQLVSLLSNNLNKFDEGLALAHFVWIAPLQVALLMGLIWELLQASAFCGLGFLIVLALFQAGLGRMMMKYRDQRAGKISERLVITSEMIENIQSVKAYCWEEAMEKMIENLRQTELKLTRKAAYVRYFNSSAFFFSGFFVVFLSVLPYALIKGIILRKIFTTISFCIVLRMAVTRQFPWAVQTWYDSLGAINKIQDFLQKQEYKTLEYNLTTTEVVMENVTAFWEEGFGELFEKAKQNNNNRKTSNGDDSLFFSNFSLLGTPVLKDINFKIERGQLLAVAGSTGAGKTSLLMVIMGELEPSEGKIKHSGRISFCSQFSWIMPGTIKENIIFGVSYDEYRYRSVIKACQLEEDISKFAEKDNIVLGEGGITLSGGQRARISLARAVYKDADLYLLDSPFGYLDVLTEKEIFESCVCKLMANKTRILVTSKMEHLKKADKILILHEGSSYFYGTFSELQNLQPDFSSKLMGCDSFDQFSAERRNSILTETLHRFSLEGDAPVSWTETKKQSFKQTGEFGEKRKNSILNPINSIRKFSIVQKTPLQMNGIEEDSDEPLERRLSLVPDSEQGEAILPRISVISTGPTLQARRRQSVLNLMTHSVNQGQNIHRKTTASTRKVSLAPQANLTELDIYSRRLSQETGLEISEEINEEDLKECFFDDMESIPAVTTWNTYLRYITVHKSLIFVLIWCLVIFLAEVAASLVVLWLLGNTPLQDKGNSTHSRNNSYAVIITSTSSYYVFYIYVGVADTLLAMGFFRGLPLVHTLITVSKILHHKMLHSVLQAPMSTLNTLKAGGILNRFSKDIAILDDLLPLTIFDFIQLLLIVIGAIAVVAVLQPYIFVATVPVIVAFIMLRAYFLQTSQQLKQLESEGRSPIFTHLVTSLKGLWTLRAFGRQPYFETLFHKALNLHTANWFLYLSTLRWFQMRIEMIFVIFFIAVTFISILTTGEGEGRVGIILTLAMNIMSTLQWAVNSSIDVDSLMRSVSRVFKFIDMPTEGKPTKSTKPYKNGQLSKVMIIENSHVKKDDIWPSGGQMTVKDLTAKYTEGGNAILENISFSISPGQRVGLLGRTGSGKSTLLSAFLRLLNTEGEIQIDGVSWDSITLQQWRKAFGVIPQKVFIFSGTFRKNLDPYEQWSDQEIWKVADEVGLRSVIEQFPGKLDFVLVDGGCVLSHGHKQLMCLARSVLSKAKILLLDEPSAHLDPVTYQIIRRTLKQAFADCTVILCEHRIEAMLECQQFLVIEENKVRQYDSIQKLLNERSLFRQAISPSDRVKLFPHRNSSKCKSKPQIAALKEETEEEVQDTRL
Description: Subsequently, the ability of compounds to elicit CFTR-mediated chloride secretion was verified on primary human bronchial epithelial (HBE) cells, from non-CF individuals, in short-circuit current experiments. In this respect, it should be noticed that potentiators are also able to stimulate wild-type CFTR, provided that a submaximal cAMP-dependent stimulation is applied.[20],[22] Accordingly, cells were stimulated with a submaximal concentration of the cAMP analogue, CPT-cAMP, followed by increasing concentrations of the potentiator hit.[20],[22]
Finally, potentiator 39 and VX-770 were further evaluated in primary HBE cells from non-CF individuals, using short-circuit current measurements, to assess the ability of compounds to maximally activate CFTR function in the presence of a submaximal cAMP stimulation. After the addition of amiloride to inhibit sodium absorption through the ENaC channel, the potentiators were added at the maximal effective concentration (1 μM) after which epithelia were stimulated with a submaximal concentration of CPT-cAMP (5 μM), followed by a maximal concentration of the cAMP analogue (100 μM) (Figure 8). We then measured the extent of CFTR-mediated chloride current elicited by submaximal cAMP stimulation in the presence of a potentiator and compared it to total CFTR-mediated chloride current, determined as the current inhibited by CFTR inhibitor-172. In parallel, other epithelia were stimulated only with the two concentrations of the cAMP analogue, in the absence of a potentiator.
Primary bronchial epithelial cells were cultured as previously described.[58] In brief, epithelial cells were cultured in a serum-free medium (LHC9 mixed with RPMI 1640, 1:1) supplemented with hormones and supplements to support cell number amplification. Then, the cells were seeded at high density on porous membranes (500,000 cells for 1 cm^2 Snapwell inserts, for Ussing chamber studies; 200,000 cells for 0.33 cm^2 Mini-Transwell inserts, for TEER/PD measurements). After 24 h, the serum-free medium was replaced with Dulbecco’s modified Eagle’s medium (DMEM)/Ham’s F12 containing 2% fetal bovine serum (FBS) plus hormones and supplements. Differentiation of cells to form a tight epithelium was monitored by measuring transepithelial electrical resistance and potential difference with an epithelial voltohmmeter (EVOM1, World Precision Instruments). […]
Differentiated bronchial epithelia on Snapwell inserts were mounted in a Ussing chamber with internal fluid circulation. […] The short-circuit current was recorded with a PowerLab 4/25 (ADInstruments) analog-to-digital converter connected to a personal computer.

[2] = target: F508del-CFTR (Homo sapiens, UniProt P13569, DEL508-508); experiment: 24 h co-incubation with correctors, YFP-based functional assay on F508del-CFTR CFBE41o- cells; assay type: cell-based; set-up: expressed in transfected cells; conditions: 39 5 μM with VX-809 1 μM or ARN23765 10 nM
Sequence of F508del-CFTR (P13569 with tags, fused parts or gaps DEL508-508): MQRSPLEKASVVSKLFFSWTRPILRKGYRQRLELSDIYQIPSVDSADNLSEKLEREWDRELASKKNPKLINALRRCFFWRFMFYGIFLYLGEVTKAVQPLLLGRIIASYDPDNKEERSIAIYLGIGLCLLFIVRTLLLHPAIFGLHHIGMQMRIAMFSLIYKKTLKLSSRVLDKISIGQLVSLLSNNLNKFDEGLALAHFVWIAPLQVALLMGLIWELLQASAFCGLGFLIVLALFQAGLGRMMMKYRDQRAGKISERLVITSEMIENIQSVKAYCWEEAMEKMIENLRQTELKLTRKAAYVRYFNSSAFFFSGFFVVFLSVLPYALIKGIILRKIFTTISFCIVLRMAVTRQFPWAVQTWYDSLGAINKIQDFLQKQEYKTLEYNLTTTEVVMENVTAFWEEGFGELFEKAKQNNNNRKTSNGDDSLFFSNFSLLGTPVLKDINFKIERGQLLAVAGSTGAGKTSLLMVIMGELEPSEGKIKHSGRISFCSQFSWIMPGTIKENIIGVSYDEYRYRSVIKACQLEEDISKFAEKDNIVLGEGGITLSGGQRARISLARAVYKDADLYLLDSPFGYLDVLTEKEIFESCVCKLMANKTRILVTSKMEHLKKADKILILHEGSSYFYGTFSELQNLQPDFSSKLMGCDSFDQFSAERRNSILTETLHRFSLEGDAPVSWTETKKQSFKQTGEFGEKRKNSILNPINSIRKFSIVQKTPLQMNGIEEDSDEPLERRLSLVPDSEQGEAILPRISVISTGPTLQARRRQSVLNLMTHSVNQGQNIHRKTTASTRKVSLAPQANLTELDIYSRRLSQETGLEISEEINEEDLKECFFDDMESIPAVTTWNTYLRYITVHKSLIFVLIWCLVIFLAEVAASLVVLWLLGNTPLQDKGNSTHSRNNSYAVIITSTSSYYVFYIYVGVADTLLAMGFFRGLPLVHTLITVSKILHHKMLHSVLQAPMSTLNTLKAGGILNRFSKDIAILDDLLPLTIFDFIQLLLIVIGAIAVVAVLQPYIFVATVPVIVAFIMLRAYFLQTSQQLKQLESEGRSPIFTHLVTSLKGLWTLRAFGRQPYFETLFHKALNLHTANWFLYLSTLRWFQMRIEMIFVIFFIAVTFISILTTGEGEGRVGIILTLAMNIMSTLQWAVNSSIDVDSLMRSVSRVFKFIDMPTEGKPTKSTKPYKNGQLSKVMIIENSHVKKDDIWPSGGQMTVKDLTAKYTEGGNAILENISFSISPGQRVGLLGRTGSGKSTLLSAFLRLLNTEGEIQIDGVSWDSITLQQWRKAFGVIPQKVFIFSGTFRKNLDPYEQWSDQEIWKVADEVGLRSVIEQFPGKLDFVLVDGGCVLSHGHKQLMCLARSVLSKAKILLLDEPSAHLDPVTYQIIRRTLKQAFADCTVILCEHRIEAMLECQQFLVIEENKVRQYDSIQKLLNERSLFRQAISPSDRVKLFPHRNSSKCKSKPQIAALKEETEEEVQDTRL
Method: Recent studies have shown that most potentiators have an undesired activity on F508del-CFTR protein processing/trafficking.[39],[40] According to these studies, chronic incubation with potentiators results in decreased activity of VX-809 as a corrector. To test the effect of our potentiators, we incubated F508del-CFTR CFBE41o-cells for 24 h with tetrahydro-γ-carboline 39 (5 μM) together with VX-809 (1 μM) and ARN23765 (10 nM), the picomolar affinity corrector recently reported by our research team.[35] […]
Prior assay, cells were washed with phosphate-buffered saline (PBS) containing (in mM) 137 NaCl, 2.7 KCl, 8.1 Na2HPO4, 1.5 KH2PO4, 1 CaCl2, and 0.5 MgCl2. […] Cells were then transferred to microplate readers (FluoStar Optima; BMG Labtech, Offenburg, Germany) for CFTR activity determination. The plate readers were equipped with high-quality excitation (HQ500/20X: 500 ± 10 nm) and emission (HQ535/30M: 535 ± 15 nm) filters for YFP (Chroma Technology). The assay consisted of a continuous 14 s fluorescence reading, 2 s before and 12 s after injection of 165 μL of an iodide-containing solution (PBS with Cl^– replaced by I^–; final I^– concentration 100 mM). Data were normalized to the initial background-subtracted fluorescence. […]

Compound: Cc1ccc(F)c2[nH]c3c(c12)CN(C(=O)c1cc(C(F)(F)F)[nH]n1)[C@H](C)C3 [Compound 39, (R)-(6-Fluoro-3,9-dimethyl-1,3,4,5-tetrahydro-2H-pyrido[4,3-b]indol-2-yl)-(5-(trifluoromethyl)-1H-pyrazol-3-yl)methanone]
- comparison of effectiveness of potentiators ([1]; 1 μM for both compounds, Figure 8B): similarly effective
- increase of the fraction of CFTR-mediated chloride current activated by submaximal cAMP stimulation ([1]; potentiator 1 μM, CPT-cAMP 5 μM, versus no potentiator): more than 2 fold
- effect on rescue efficacy of VX-809 or ARN23765 [2]: did not affect the rescue efficacy
